Laboratory results from patent US11629201B2, “PSMA-binding agents and uses thereof” (ITM Isotope Technologies Munich SE, priority 2017, dated 2023).

Experiments:
[1] = tested on: metastatic castration-resistant prostate cancer; experiment: Individual curative trial, PET-CT, Gallium-68 labeled compound (Case 2); assay type: in vivo, human; details: patient; radiolabeled with Gallium-68
From the text: The compound PSMA-ALB-06, radiolabeled with a positron emitting radionuclide Gallium-68 was used in an individual curative trial in a patient with metastatic castration-resistant prostate cancer as a diagnostic agents for PET-CT. […] The high contrast of the images increases over the time after injection confirming the prolonged blood clearance and high specific uptake in the tumors.

[2] = tested on: prostate adenocarcinoma with metastases; experiment: Individual curative trial, SPECT-CT, Lutetium-177 labeled compound (Case 1); assay type: in vivo, human; details: patient, radiolabeled with Lutetium-177
Method: The compound PSMA-ALB-06, radiolabeled with therapeutic radionuclide Lutetium-177 was used in the scope of an individual curative trial in a patient with mildly differentiated prostate adenocarcinoma with extensive bilobar liver metastases, as well as disseminated osteoblastic metastases (in the pelvic region), and polytopic voluminous lymph node metastases. The evaluation of the biodistribution and in vivo behavior of the radiolabeled compound PSMA-ALB-06 was performed by means of SPECT-CT measurements.
The SPECT-CT visualization was performed at different time points up to 46 hours post injection (p.i.). […] The blood clearance is completed within first hours, whereas the unspecific uptake in healthy organs (especially liver, salivary and kidney) remains moderate over the time.

Cc1ccc(CCCC(=O)NCCCCC(NC(=O)CN2CCN(CC(=O)O)CCN(CC(=O)O)CCN(CC(=O)O)CC2)C(=O)NCC2CCC(C(=O)NC(Cc3ccc4ccccc4c3)C(=O)NCCCCC(NC(=O)NC(CCC(=O)O)C(=O)O)C(=O)O)CC2)cc1 (stereo not drawn) [PSMA-ALB-06]
visualization of malignant tissues (PET) [1]: Malignant tissues could be visualized by means of PET with high specificity
uptake in malignant tissues (SPECT-CT) [2]: substantial specific uptake of the radiolabeled compound in malignant tissues
blood circulation and bioavailability ([2]; up to 46 hours p.i.): prolonged blood circulation and improved bioavailability
